Like-named read-outs stand apart in the source and are kept apart here. Non-standard residues stand in square brackets, D forms with d. Residues, ends and D or L forms follow the SMILES beside them. No end group written: not given here.
Assays:
[1] = target: T1, ZIKV E protein (Zika) (Zika virus, UniProt A0A024B7W1); test: BIACORE surface plasmon resonance interaction with immobilized peptide; format: binding
T1 construct: the envelope protein of the Zika virus (ZIKV E)

[2] = system: respiratory syncytial virus (RSV); test: Respiratory syncytial virus replication in bronchial HAE (RT-qPCR); format: cell-based; details: 50 μM, 10 days
[3] = target: T2, Dengue 2 virus capsid protein (Dengue virus type 2, UniProt P29990); test: BIACORE surface plasmon resonance interaction with immobilized peptide; format: binding
T2 construct: with the Dengue 2 virus capsid protein
T2 sequence (P29990 1-100 limits assumed): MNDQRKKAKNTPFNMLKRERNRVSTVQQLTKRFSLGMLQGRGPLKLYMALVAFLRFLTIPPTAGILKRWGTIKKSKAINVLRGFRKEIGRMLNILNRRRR

[4] = system: capsid protein of the Influenza H1N1 virus; test: as above; format: binding
[5] = target: Protein N (SARS-CoV-2) (Severe acute respiratory syndrome coronavirus 2, UniProt P0DTC9); test: as above; format: binding; details: analyte 10-200 nM
[6] = system: SARS-CoV-2
[7] = system: Influenza A H1N1; format: cell-based; details: 50 μM; tracheo-bronchial HAE
[8] = target: T3, NS1-D2 (Dengue) (Dengue virus type 2, UniProt P29990); test: BIACORE surface plasmon resonance interaction with immobilized peptide; format: binding, Dengue virus 2
T3 construct: the non-structural protein 1 of the Dengue virus 2 (NS1-D2)
T3 sequence (P29990 776-1127 limits assumed): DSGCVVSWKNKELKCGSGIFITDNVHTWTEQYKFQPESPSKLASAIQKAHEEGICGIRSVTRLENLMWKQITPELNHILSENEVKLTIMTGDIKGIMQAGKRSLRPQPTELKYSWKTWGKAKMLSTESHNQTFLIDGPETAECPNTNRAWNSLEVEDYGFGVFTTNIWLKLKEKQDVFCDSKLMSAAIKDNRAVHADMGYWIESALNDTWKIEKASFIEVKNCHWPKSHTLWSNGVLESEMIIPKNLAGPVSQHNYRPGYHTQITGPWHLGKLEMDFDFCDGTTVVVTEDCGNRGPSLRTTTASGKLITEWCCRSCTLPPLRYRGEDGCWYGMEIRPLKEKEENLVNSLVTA

[9] = system: Dengue 2 virus; test: Dengue 2 virus replication in primary cultures of lung cells (PFU in VeroE6); format: cell-based; details: 48 hours
Method: The cultures were treated with the peptides for 2 or 24 hours, at concentrations of 0.01 to 100 μM before viral challenge. The medium was discarded and the cells were infected with Dengue 2 virus, at an MOI of 10 for 2 hours at 37° C. and 5% CO2. The virus was eliminated, a wash was then performed and the cultures were treated again with peptides in DMEM medium, and incubated for 48 hours at 37° C. and 5% CO2. Subsequently, the cultures were collected to assess viral performance on VeroE6 cells. For this, the cells were seeded in 24-well plates and when they reached confluence they were infected with serial 10-fold dilutions of the supernatants, incubated for 1 hour at 37° C. and 5% CO2. Next, a wash was carried out with PBS, and a layer of agar in 2× DMEM (1:1) added. The layer was allowed to solidify and incubated for 48 hours at 37° C. 5% CO2. The plates were stained with crystal violet, for the determination of the number of PFUs. The peptides inhibited between 68 and 88% of viral replication (Table 5).

[10] = system: human bocavirus (HBoV); test: Human bocavirus replication in tracheal HAE (qPCR NS1 region); format: cell-based; details: 50 μM, 72 hours
[11] = system: SARS-CoV-2; remark: listed apart in the source
[12] = system: Parainfluenza virus type 3 (HPIV3); format: cell-based; details: 50 μM; HAE, 3 days
[13] = system: AdV 7 Gomen strain; test: Adenovirus type 7 replication in bronchial HAE (qPCR); format: cell-based; details: 50 μM, 24 hours
[14] = system: herpes simplex virus type 1 (HSV-1); test: HSV-1 replication in primary explants of human nasal mucosa (qPCR); format: cell-based; details: 36 hours
Method: The replication of herpes simplex virus type 1 (HSV-1) was performed in primary explants of human nasal mucosa, according to Glorieux et al. (Glorieux et al. 2011, PLoS ONE, 6(7): e22160, doi: 10.1371/journal.pone.0022160). […] Afterwards, the cultures were washed and kept at 37° C. and 5% CO2 for 36 hours, in presence of the peptides in culture medium. The cultures were harvested, and HSV-1 was quantified by qPCR. The percentages of viral inhibition ranged from 70 to 92% in presence of the peptides (Table 5).

[15] = system: SARS-CoV-2; details: VeroE6

T1 sequence (A0A024B7W1 291-794): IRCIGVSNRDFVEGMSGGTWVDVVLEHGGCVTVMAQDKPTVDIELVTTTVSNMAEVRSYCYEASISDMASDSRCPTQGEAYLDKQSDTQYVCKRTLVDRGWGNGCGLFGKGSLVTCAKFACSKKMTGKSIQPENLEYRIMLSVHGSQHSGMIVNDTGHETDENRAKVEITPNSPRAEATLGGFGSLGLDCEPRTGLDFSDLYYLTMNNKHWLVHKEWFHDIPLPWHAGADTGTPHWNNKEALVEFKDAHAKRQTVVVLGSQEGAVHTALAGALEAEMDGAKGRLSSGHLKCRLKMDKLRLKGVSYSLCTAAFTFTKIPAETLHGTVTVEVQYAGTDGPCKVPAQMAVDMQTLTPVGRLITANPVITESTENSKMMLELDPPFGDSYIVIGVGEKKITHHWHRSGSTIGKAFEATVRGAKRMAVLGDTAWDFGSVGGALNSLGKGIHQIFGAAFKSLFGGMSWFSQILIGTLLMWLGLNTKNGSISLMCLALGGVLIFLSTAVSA

NDRLASLYDKV [SEQ ID NO: 14]
Kd [1]: 3.2 µM | interaction [1]: showed interaction | Sincitial respiratory virus Inhib. % [2]: 82% | Kd [3]: 5910 nM | Kd [4]: 4670 nM | interaction [4]: showed interaction | Kd [5]: 1140 nM | Inhibition % ([6]; 96 h, 50 μM): 83.2% | Influenza A H1N1 Inhib. % [7]: 79% | interaction [8]: showed interaction | Dengue 2 Inhib. % ([9]; 50 μM): 70%

RVTQMNLNARLASLYDKV [SEQ ID NO: 10]
Inhibition % ([6]; 96 h, 100 μM): 70.8%

RVTQANLNDRLASLYDKV [SEQ ID NO: 8]
Bocavirus HBoV-1 Inhib. % [10]: 87% | Bronchial HAE Inhibition % ([11]; 72 h, 100 μM): 92% | Nasal HAE Inhibition % ([11]; 72 h, 100 μM): 88% | Inhibition % ([6]; 96 h, 100 μM): 90.2% | Parainfluenza Type 3 Inhib. % [12]: 73% | Dengue 2 Inhib. % ([9]; 50 μM): 72%

RVTQMNLNDRLAALYDKV [SEQ ID NO: 18]
Inhibition % ([6]; 96 h, 100 μM): 69.2%

RVTAMNLNDRLASLYDKV [SEQ ID NO: 7]
Inhibition % ([6]; 96 h, 100 μM): 92.4% | Adenovirus Ad7 Inhib. % [13]: 69% | Influenza A H1N1 Inhib. % [7]: 70% | Dengue 2 Inhib. % ([9]; 100 μM): 87%

RVTQMNLNDRAASLYDKV [SEQ ID NO: 21]
inhibition of SARS-CoV-2 in primary cultures of human airway epithelium [11]: ≤ 20% | Inhibition % ([6]; 96 h, 100 μM): 25.5%

SEQ ID NO: 20: synthetic peptide related to SEQ ID NO: 1, obtained by solid phase synthesis (RVTQMNLNDRLASLYDKV; Description of the Artificial Sequence synthetic peptide where N8 is a D amino acid)
Bocavirus HBoV-1 Inhib. % [10]: 67% | Inhibition % ([6]; 50 µM): 69.8% | Parainfluenza Type 3 Inhib. % [12]: 79% | Herpes simplex HSV-1 Inhib. % ([14]; 100 μM): 70%

RVTQMNLNDRLVSLYDKV [SEQ ID NO: 11]
Inhibition % ([6]; 96 h, 100 μM): 73.9%

SEQ ID NO: 19: synthetic peptide related to SEQ ID NO: 1, obtained by solid phase synthesis (RVTQMNLNDRLASLYDKV; Description of the Artificial Sequence synthetic peptide where N6 is a D amino acid)
Bocavirus HBoV-1 Inhib. % [10]: 85% | Sincitial respiratory virus Inhib. % [2]: 75% | Bronchial HAE Inhibition % ([11]; 100 µM): 86% | Nasal HAE Inhibition % ([11]; 100 µM): 82% | Inhibition % ([6]; 50 µM): 91.8% | Influenza A H1N1 Inhib. % [7]: 67% | Dengue 2 Inhib. % ([9]; 50 μM): 68%

CSCC[C@H](NC(=O)[C@H](CCC(N)=O)NC(=O)[C@@H](NC(=O)[C@@H](NC(=O)[C@H](CCCNC(=N)N)NC(C)=O)C(C)C)[C@@H](C)O)C(=O)N[C@@H](CC(N)=O)C(=O)N[C@@H](CC(C)C)C(=O)N[C@@H](CC(N)=O)C(=O)N[C@H](CC(=O)O)C(=O)N[C@@H](CCCNC(=N)N)C(=O)N[C@@H](CC(C)C)C(=O)N[C@@H](C)C(=O)N[C@@H](CO)C(=O)N[C@@H](CC(C)C)C(=O)N[C@@H](Cc1ccc(O)cc1)C(=O)N[C@@H](CC(=O)O)C(=O)N[C@@H](CCCCN)C(=O)N[C@H](C(=O)O)C(C)C [SEQ ID NO: 5] (Ac-RVTQMNLN[dD]RLASLYDKV-OH; C-terminus assumed)
Inhibition % ([6]; 96 h, 100 μM): 85.3%

RVTQMNLNDRLASLYAKV [SEQ ID NO: 12]
Inhibition % ([6]; 96 h, 100 μM): 77.4%

RVTQMNLADRLASLYDKV [SEQ ID NO: 16]
Inhibition % ([6]; 96 h, 100 μM): 79.6%

RVTQMNLNDRLASLYDAV [SEQ ID NO: 13]
Sincitial respiratory virus Inhib. % [2]: 91% | Bronchial HAE Inhibition % ([11]; 72 h, 50 μM): 89% | Nasal HAE Inhibition % ([11]; 72 h, 50 μM): 79% | Inhibition % ([6]; 96 h, 100 μM): 90.5% | Adenovirus Ad7 Inhib. % [13]: 76% | Parainfluenza Type 3 Inhib. % [12]: 90% | Herpes simplex HSV-1 Inhib. % ([14]; 50 μM): 78%

NLNDRLASLYDKV [SEQ ID NO: 15]
Kd [1]: 0.0624 µM | interaction [1]: showed interaction | Kd [3]: 1270 nM | Bronchial HAE Inhibition % ([11]; 72 h, 50 μM): 90% | Nasal HAE Inhibition % ([11]; 72 h, 50 μM): 86% | Kd [4]: 189 nM | interaction [4]: showed interaction | Kd [5]: 7820 nM | Inhibition % ([6]; 96 h, 50 μM): 87.1% | Adenovirus Ad7 Inhib. % [13]: 78% | Parainfluenza Type 3 Inhib. % [12]: 69% | interaction [8]: showed interaction | Herpes simplex HSV-1 Inhib. % ([14]; 50 μM): 81%

Ivermectin
IC50 ([15]; read-out: IC50 Compound + peptide SEQ ID NO: 1, in presence of peptide SEQ ID NO: 1 at 10 μM): 210 nM | IC50 ([15]; read-out: IC50 Compound + peptide SEQ ID NO: 2, in presence of peptide SEQ ID NO: 2): 150 nM | IC50 ([15]; read-out: IC50 Compound + peptide SEQ ID NO: 3, in presence of peptide SEQ ID NO: 3): 200 nM | IC50 ([15]; read-out: IC50 Compound, compound alone): 2700 nM

CSCC[C@H](NC(=O)[C@H](CCC(N)=O)NC(=O)[C@@H](NC(=O)[C@@H](NC(=O)[C@H](CCCNC(=N)N)NC(C)=O)C(C)C)[C@@H](C)O)C(=O)N[C@@H](CC(N)=O)C(=O)N[C@@H](CC(C)C)C(=O)N[C@H](CC(N)=O)C(=O)N[C@@H](CC(=O)O)C(=O)N[C@@H](CCCNC(=N)N)C(=O)N[C@@H](CC(C)C)C(=O)N[C@@H](C)C(=O)N[C@@H](CO)C(=O)N[C@@H](CC(C)C)C(=O)N[C@@H](Cc1ccc(O)cc1)C(=O)N[C@@H](CC(=O)O)C(=O)N[C@@H](CCCCN)C(=O)N[C@H](C(=O)O)C(C)C [SEQ ID NO: 4] (Ac-RVTQMNL[dN]DRLASLYDKV-OH; C-terminus assumed)
Bronchial HAE Inhibition % ([11]; 72 h, 100 μM): 85% | Nasal HAE Inhibition % ([11]; 72 h, 100 μM): 80% | Inhibition % ([6]; 96 h, 100 μM): 92.4%

Ac-RVTQMNLNDRLASLYDKV [SEQ ID NO: 2]
Kd [1]: 18.2 µM | interaction [1]: showed interaction | Sincitial respiratory virus Inhib. % [2]: 83% | Kd [3]: 754 nM | Bronchial HAE Inhibition % ([11]; 72 h, 50 μM): 90% | Nasal HAE Inhibition % ([11]; 72 h, 50 μM): 80% | Kd [4]: 24.3 nM | interaction [4]: showed interaction | Kd [5]: 523 nM | Inhibition % ([6]; 96 h, 50 μM): 95.1% | Influenza A H1N1 Inhib. % [7]: 90% | Parainfluenza Type 3 Inhib. % [12]: 89% | interaction [8]: showed interaction | Dengue 2 Inhib. % ([9]; 50 μM): 88%

CSCC[C@H](NC(=O)[C@H](CCC(N)=O)NC(=O)[C@@H](NC(=O)[C@@H](NC(=O)[C@H](CCCNC(=N)N)NC(C)=O)C(C)C)[C@@H](C)O)C(=O)N[C@H](CC(N)=O)C(=O)N[C@@H](CC(C)C)C(=O)N[C@@H](CC(N)=O)C(=O)N[C@@H](CC(=O)O)C(=O)N[C@@H](CCCNC(=N)N)C(=O)N[C@@H](CC(C)C)C(=O)N[C@@H](C)C(=O)N[C@@H](CO)C(=O)N[C@@H](CC(C)C)C(=O)N[C@@H](Cc1ccc(O)cc1)C(=O)N[C@@H](CC(=O)O)C(=O)N[C@@H](CCCCN)C(=O)N[C@H](C(=O)O)C(C)C [SEQ ID NO: 3] (Ac-RVTQM[dN]LNDRLASLYDKV-OH; C-terminus assumed)
Bocavirus HBoV-1 Inhib. % [10]: 80% | Sincitial respiratory virus Inhib. % [2]: 87% | Inhibition % ([6]; 96 h, 100 μM): 85.4% | Adenovirus Ad7 Inhib. % [13]: 82% | Influenza A H1N1 Inhib. % [7]: 93% | Herpes simplex HSV-1 Inhib. % ([14]; 50 μM): 73%

RVTQMNANDRLASLYDKV [SEQ ID NO: 9]
Bocavirus HBoV-1 Inhib. % [10]: 75% | Inhibition % ([6]; 96 h, 100 μM): 83.7% | Adenovirus Ad7 Inhib. % [13]: 79% | Influenza A H1N1 Inhib. % [7]: 89%

RVTQMNLNDALASLYDKV [SEQ ID NO: 17]
Inhibition % ([6]; 96 h, 100 μM): 72.7%

RATQMNLNDRLASLYDKV [SEQ ID NO: 6]
Inhibition % ([6]; 96 h, 100 μM): 82.2%

— patent US20250282828A1, “PEPTIDES FOR THE TREATMENT OF RESPIRATORY INFECTIONS OF VIRAL ORIGIN” (CENTRO DE INGENIERÍA GENÉTICA Y BIOTECNOLOGÍA, priority 2020, published 2025)
